Source: the supplement of paper PMC10307832

Columns and labels:
Assay in all cases: relative viability (nuclei count vs DMSO), 5 days (fraction); higher = more cells survive
[1] = compound: Cn1cc(-c2cnn3c(N)c(Br)c([C@@H]4CCCNC4)nc23)cn1 + Cc1nc(NC(=O)N2CCC[C@H]2C(N)=O)sc1-c1ccnc(C(C)(C)C(F)(F)F)c1 [Alpelisib] (partner 2 µM)
Method in brief: (§1)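 For relative viability, nuclei counts in treated wells were divided by those in vehicle wells. Lung cancer cell lines had been pin-tool dosed in 1536-well plates the day after seeding and cultured for 5 days, then fixed and stained in one step (final 0.05% Triton X-100, 1% formaldehyde, 1 ug/ml Hoechst) and imaged at 4×. Doses were one drug alone or a fixed anchor-drug dose plus five library-drug doses (not always all listed) in √10 steps, and values are duplicate-plate medians.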

[2] = compound: Cn1cc(-c2cnn3c(N)c(Br)c([C@@H]4CCCNC4)nc23)cn1 + CC(=O)c1c(C)c2cnc(Nc3ccc(N4CCNCC4)cn3)nc2n(C2CCCC2)c1=O [Palbociclib] (partner 0.5 µM)
Method in brief: as §1

[3] = compound: Cn1cc(-c2cnn3c(N)c(Br)c([C@@H]4CCCNC4)nc23)cn1 + O=C(c1cc(Cc2n[nH]c(=O)c3ccccc23)ccc1F)N1CCN(C(=O)C2CC2)CC1 [Olaparib] (partner 8 µM)
Method in brief: as §1

[4] = compound: Cn1cc(-c2cnn3c(N)c(Br)c([C@@H]4CCCNC4)nc23)cn1 + Nc1nc2[nH]cc(CCc3ccc(C(=O)N[C@@H](CCC(=O)O)C(=O)O)cc3)c2c(=O)[nH]1 [Pemetrexed] (partner 0.2 µM)
Method in brief: as §1

In the case of PC-3 [JPC-3], the relative viability ([1]; first compound 0.05 µM) is reported as 1.12, the relative viability ([1]; first compound 0.1581 µM) is reported as 1.13 and the relative viability ([1]; first compound 0.5 µM) is reported as 1.13. For the same cell line, the relative viability ([1]; first compound 1.581 µM) was 0.965, the relative viability ([1]; first compound 5 µM) was 1.12 and the relative viability ([2]; first compound 0.05 µM) was 0.499. It also gave a relative viability ([2]; first compound 0.1581 µM) of 0.53, a relative viability ([2]; first compound 1.581 µM) of 0.512 and a relative viability ([2]; first compound 5 µM) of 0.562. For the same cell line, the relative viability ([3]; first compound 0.05 µM) was 1.14, the relative viability ([3]; first compound 0.1581 µM) was 1.02 and the relative viability ([3]; first compound 1.581 µM) was 1.09. It also gave a relative viability ([3]; first compound 5 µM) of 1.15, a relative viability ([4]; first compound 0.05 µM) of 0.698 and a relative viability ([4]; first compound 0.1581 µM) of 1.03. The relative viability ([4]; first compound 1.581 µM) was 1.09 and the relative viability ([4]; first compound 5 µM) was 0.82.
With PC-14 the relative viability ([1]; first compound 0.05 µM) was 0.939, the relative viability ([1]; first compound 0.1581 µM) was 1.14 and the relative viability ([1]; first compound 0.5 µM) was 0.883. For the same cell line, the relative viability ([1]; first compound 1.581 µM) was 0.858, the relative viability ([1]; first compound 5 µM) was 0.485 and the relative viability ([2]; first compound 0.05 µM) was 0.614. It also gave a relative viability ([2]; first compound 0.1581 µM) of 0.358, a relative viability ([2]; first compound 0.5 µM) of 0.269 and a relative viability ([2]; first compound 1.581 µM) of 0.156. The relative viability ([2]; first compound 5 µM) was 0.121, the relative viability ([3]; first compound 0.05 µM) was 0.211 and the relative viability ([3]; first compound 0.1581 µM) was 0.213. For the same cell line, the relative viability ([3]; first compound 0.5 µM) was 0.222, the relative viability ([3]; first compound 1.581 µM) was 0.19 and the relative viability ([3]; first compound 5 µM) was 0.125. For the same cell line, the relative viability ([4]; first compound 0.05 µM) was 0.13, the relative viability ([4]; first compound 0.1581 µM) was 0.1 and the relative viability ([4]; first compound 0.5 µM) was 0.102. The relative viability ([4]; first compound 1.581 µM) was 0.089 and the relative viability ([4]; first compound 5 µM) was 0.0648.
RERF-LC-KJ was tested, and the relative viability ([1]; first compound 0.05 µM) was 0.849, the relative viability ([1]; first compound 0.1581 µM) was 0.846 and the relative viability ([1]; first compound 0.5 µM) was 0.892. For the same cell line, the relative viability ([1]; first compound 1.581 µM) was 0.708, the relative viability ([1]; first compound 5 µM) was 0.717 and the relative viability ([2]; first compound 0.05 µM) was 0.983. The relative viability ([2]; first compound 0.1581 µM) was 1.04, the relative viability ([2]; first compound 0.5 µM) was 1.03 and the relative viability ([2]; first compound 1.581 µM) was 0.863. The relative viability ([2]; first compound 5 µM) was 0.712, the relative viability ([3]; first compound 0.05 µM) was 1.05 and the relative viability ([3]; first compound 0.1581 µM) was 0.996. The relative viability ([3]; first compound 0.5 µM) was 0.869, the relative viability ([3]; first compound 1.581 µM) was 0.762 and the relative viability ([3]; first compound 5 µM) was 0.662. The relative viability ([4]; first compound 0.05 µM) was 0.459, the relative viability ([4]; first compound 0.1581 µM) was 0.476 and the relative viability ([4]; first compound 0.5 µM) was 0.477. It also gave a relative viability ([4]; first compound 1.581 µM) of 0.422 and a relative viability ([4]; first compound 5 µM) of 0.478.
Cell Line SK-LU-1 has a relative viability ([1]; first compound 0.05 µM) of 1.19, a relative viability ([1]; first compound 0.5 µM) of 0.463 and a relative viability ([1]; first compound 1.581 µM) of 0.339. For the same cell line, the relative viability ([1]; first compound 5 µM) was 0.248, the relative viability ([2]; first compound 0.05 µM) was 0.388 and the relative viability ([2]; first compound 0.1581 µM) was 0.308. For the same cell line, the relative viability ([2]; first compound 0.5 µM) was 0.366, the relative viability ([2]; first compound 1.581 µM) was 0.323 and the relative viability ([2]; first compound 5 µM) was 0.225. For the same cell line, the relative viability ([3]; first compound 0.05 µM) was 0.515, the relative viability ([3]; first compound 0.1581 µM) was 0.308 and the relative viability ([3]; first compound 0.5 µM) was 0.31. The relative viability ([3]; first compound 1.581 µM) was 0.246, the relative viability ([3]; first compound 5 µM) was 0.226 and the relative viability ([4]; first compound 0.05 µM) was 0.955. It also gave a relative viability ([4]; first compound 0.1581 µM) of 0.612, a relative viability ([4]; first compound 0.5 µM) of 0.536 and a relative viability ([4]; first compound 1.581 µM) of 0.321. The relative viability ([4]; first compound 5 µM) was 0.227.
SK-MES-1 showed a relative viability ([1]; first compound 0.05 µM) of 1.01, a relative viability ([1]; first compound 0.1581 µM) of 1.03 and a relative viability ([1]; first compound 0.5 µM) of 0.94. The relative viability ([1]; first compound 1.581 µM) was 0.763, the relative viability ([1]; first compound 5 µM) was 0.592 and the relative viability ([2]; first compound 0.05 µM) was 0.315. The relative viability ([2]; first compound 0.1581 µM) was 0.327, the relative viability ([2]; first compound 0.5 µM) was 0.308 and the relative viability ([2]; first compound 1.581 µM) was 0.273. The relative viability ([2]; first compound 5 µM) was 0.238, the relative viability ([3]; first compound 0.05 µM) was 0.879 and the relative viability ([3]; first compound 0.1581 µM) was 0.596. For the same cell line, the relative viability ([3]; first compound 0.5 µM) was 0.441, the relative viability ([3]; first compound 1.581 µM) was 0.34 and the relative viability ([3]; first compound 5 µM) was 0.2. For the same cell line, the relative viability ([4]; first compound 0.05 µM) was 1.05, the relative viability ([4]; first compound 0.1581 µM) was 0.755 and the relative viability ([4]; first compound 0.5 µM) was 0.651. For the same cell line, the relative viability ([4]; first compound 1.581 µM) was 0.351 and the relative viability ([4]; first compound 5 µM) was 0.258.
For SW 1573, the relative viability ([1]; first compound 0.05 µM) was 0.779, the relative viability ([1]; first compound 0.1581 µM) was 1.07 and the relative viability ([1]; first compound 0.5 µM) was 0.801. The relative viability ([1]; first compound 1.581 µM) was 0.78, the relative viability ([1]; first compound 5 µM) was 0.616 and the relative viability ([2]; first compound 0.05 µM) was 0.482. It also gave a relative viability ([2]; first compound 0.1581 µM) of 0.447, a relative viability ([2]; first compound 0.5 µM) of 0.333 and a relative viability ([2]; first compound 1.581 µM) of 0.264. It also gave a relative viability ([2]; first compound 5 µM) of 0.301, a relative viability ([3]; first compound 0.05 µM) of 0.476 and a relative viability ([3]; first compound 0.1581 µM) of 0.562. For the same cell line, the relative viability ([3]; first compound 0.5 µM) was 0.44, the relative viability ([3]; first compound 1.581 µM) was 0.401 and the relative viability ([3]; first compound 5 µM) was 0.457. For the same cell line, the relative viability ([4]; first compound 0.05 µM) was 1, the relative viability ([4]; first compound 0.1581 µM) was 0.759 and the relative viability ([4]; first compound 0.5 µM) was 0.832. The relative viability ([4]; first compound 1.581 µM) was 0.526 and the relative viability ([4]; first compound 5 µM) was 0.824.
UMC-11 was tested, and the relative viability ([1]; first compound 0.05 µM) was 1.04, the relative viability ([1]; first compound 0.1581 µM) was 1.07 and the relative viability ([1]; first compound 0.5 µM) was 0.675. It also gave a relative viability ([1]; first compound 1.581 µM) of 0.621, a relative viability ([1]; first compound 5 µM) of 0.579 and a relative viability ([2]; first compound 0.05 µM) of 0.346. It also gave a relative viability ([2]; first compound 0.1581 µM) of 0.316, a relative viability ([2]; first compound 0.5 µM) of 0.312 and a relative viability ([2]; first compound 1.581 µM) of 0.304. It also gave a relative viability ([2]; first compound 5 µM) of 0.29, a relative viability ([3]; first compound 0.05 µM) of 0.429 and a relative viability ([3]; first compound 0.1581 µM) of 0.399. For the same cell line, the relative viability ([3]; first compound 0.5 µM) was 0.41, the relative viability ([3]; first compound 1.581 µM) was 0.381 and the relative viability ([3]; first compound 5 µM) was 0.34. For the same cell line, the relative viability ([4]; first compound 0.05 µM) was 0.841, the relative viability ([4]; first compound 0.1581 µM) was 0.753 and the relative viability ([4]; first compound 0.5 µM) was 0.626. The relative viability ([4]; first compound 1.581 µM) was 0.657 and the relative viability ([4]; first compound 5 µM) was 0.429.
